What was measured:
Histone deacetylase 1 [1] = target: T1, Histone deacetylase 1 (Homo sapiens, UniProt Q13547); assay: Inhibition of human recombinant HDAC1 pre-incubated for 30 mins before Ac-Leu- Gly-Lys(Ac)-AMC substrate addition and measured after 90 mins by fluorescence based assay
Histone deacetylase 2 = Histone deacetylase 2 (Homo sapiens, UniProt Q92769); assay: Inhibition of human recombinant HDAC2 pre-incubated for 30 mins before Ac-Leu- Gly-Lys(Ac)-AMC substrate addition and measured after 90 mins by fluorescence based assay
Histone deacetylase 3 = Histone deacetylase 3 (Homo sapiens, UniProt O15379); assay: Inhibition of human recombinant HDAC3 pre-incubated for 30 mins before Ac-Leu- Gly-Lys(Ac)-AMC substrate addition and measured after 90 mins by fluorescence based assay
Histone deacetylase 8 = target: T2, Histone deacetylase 8 (Homo sapiens, UniProt Q9BY41); assay: Inhibition of human recombinant HDAC8 pre-incubated for 30 mins before Ac-Leu- Gly-Lys(Ac)-AMC substrate addition and measured after 90 mins by fluorescence based assay
T2 sequence (Q9BY41 whole entry): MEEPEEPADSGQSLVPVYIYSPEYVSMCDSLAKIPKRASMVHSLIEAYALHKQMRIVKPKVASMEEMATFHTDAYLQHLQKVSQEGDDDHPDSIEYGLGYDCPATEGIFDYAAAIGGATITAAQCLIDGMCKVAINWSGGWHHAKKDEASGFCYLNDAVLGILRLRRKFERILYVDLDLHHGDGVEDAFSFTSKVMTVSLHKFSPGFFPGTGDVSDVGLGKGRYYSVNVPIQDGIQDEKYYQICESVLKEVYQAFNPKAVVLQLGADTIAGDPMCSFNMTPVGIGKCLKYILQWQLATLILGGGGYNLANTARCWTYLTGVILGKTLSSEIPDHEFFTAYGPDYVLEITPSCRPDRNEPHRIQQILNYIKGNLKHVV

Histone deacetylase 1 [2] = target: T1, Histone deacetylase 1; assay: Inhibition of HDAC1 in human MM96L cells assessed as activation of histone H4 acetylation at Lys5, Lys8, Lys12 and Lys16 residues by Western blot analysis; type: cell-based
A549 [3] = assay: Cytotoxicity against human A549 cells assessed as reduction in cell viability incubated for 72 hrs by MTT assay; details: A549, 72 h
HT-29 [4] = assay: Cytotoxicity against human HT-29 cells assessed as reduction in cell viability incubated for 72 hrs by MTT assay; details: HT-29, 72 h
HeLa [5] = assay: Cytotoxicity against human HeLa cells assessed as reduction in cell viability incubated for 72 hrs by MTT assay
MDA-MB-231 [6] = assay: Cytotoxicity against human MDA-MB-231 cells assessed as reduction in cell viability incubated for 72 hrs by MTT assay; details: MDA-MB-231, 72 h
MM96L [7] = assay: Cytotoxicity against human MM96L cells assessed as reduction in cell viability incubated for 72 hrs by MTT assay
NFF [8] = assay: Cytotoxicity against human NFF cells assessed as reduction in cell viability incubated for 72 hrs by MTT assay
NFF [9] = assay: Cytotoxicity against human NFF cells assessed as increase in intracellular caspase 3/7 release incubated for 72 hrs by Caspase-Glo 3/7 assay
A549 [10] = assay: Cytotoxicity against human A549 cells assessed as increase in intracellular caspase 3/7 release incubated for 72 hrs by Caspase-Glo 3/7 assay; details: A549, 72 h
HT-29 [11] = assay: Cytotoxicity against human HT-29 cells assessed as increase in intracellular caspase 3/7 release incubated for 72 hrs by Caspase-Glo 3/7 assay; details: HT-29, 72 h
HeLa [12] = assay: Cytotoxicity against human HeLa cells assessed as increase in intracellular caspase 3/7 release incubated for 72 hrs by Caspase-Glo 3/7 assay
MDA-MB-231 [13] = assay: Cytotoxicity against human MDA-MB-231 cells assessed as increase in intracellular caspase 3/7 release incubated for 72 hrs by Caspase-Glo 3/7 assay; details: MDA-MB-231, 72 h
MM96L [14] = assay: Cytotoxicity against human MM96L cells assessed as increase in intracellular caspase 3/7 release incubated for 72 hrs by Caspase-Glo 3/7 assay

T1 sequence (Q13547 whole entry): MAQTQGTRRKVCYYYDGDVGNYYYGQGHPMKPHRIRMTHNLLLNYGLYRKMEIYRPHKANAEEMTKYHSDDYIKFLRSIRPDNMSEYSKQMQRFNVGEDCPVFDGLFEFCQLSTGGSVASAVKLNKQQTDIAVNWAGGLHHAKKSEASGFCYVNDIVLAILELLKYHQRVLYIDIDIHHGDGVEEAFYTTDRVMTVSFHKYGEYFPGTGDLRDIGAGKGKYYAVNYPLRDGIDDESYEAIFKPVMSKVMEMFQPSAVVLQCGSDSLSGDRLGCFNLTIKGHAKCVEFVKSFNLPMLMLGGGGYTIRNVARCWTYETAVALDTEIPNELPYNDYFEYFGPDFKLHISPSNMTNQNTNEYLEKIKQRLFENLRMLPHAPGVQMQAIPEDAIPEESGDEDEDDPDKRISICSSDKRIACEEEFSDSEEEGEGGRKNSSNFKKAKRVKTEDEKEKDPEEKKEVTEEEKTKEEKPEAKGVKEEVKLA
Chain of Histone deacetylase 3 (O15379 whole entry): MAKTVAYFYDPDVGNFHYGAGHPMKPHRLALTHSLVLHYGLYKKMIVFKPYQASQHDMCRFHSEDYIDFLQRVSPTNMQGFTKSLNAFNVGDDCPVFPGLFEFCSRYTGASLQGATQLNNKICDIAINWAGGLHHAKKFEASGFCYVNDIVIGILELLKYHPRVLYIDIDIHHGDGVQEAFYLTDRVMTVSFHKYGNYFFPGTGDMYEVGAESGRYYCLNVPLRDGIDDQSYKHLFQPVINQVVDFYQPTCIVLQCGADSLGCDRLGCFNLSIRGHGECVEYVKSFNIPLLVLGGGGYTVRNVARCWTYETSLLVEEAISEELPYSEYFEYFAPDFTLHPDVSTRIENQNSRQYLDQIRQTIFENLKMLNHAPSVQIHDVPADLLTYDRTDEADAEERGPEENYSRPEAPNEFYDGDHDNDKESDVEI
Chain of Histone deacetylase 2 (Q92769 whole entry): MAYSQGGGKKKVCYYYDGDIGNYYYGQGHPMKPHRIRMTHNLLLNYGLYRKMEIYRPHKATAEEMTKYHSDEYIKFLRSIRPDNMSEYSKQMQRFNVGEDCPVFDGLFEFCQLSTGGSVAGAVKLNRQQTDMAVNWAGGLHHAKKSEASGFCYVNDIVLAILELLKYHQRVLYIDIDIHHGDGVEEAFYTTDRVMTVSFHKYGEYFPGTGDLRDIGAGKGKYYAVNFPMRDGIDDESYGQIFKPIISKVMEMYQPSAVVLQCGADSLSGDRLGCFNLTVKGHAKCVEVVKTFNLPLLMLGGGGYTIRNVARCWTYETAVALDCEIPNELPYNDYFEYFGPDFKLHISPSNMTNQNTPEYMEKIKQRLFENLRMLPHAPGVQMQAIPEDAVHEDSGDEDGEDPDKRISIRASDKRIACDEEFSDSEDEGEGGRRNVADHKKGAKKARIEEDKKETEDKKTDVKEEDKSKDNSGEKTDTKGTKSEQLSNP

Structure (SMILES)	IC50 (Histone deacetylase 1 [1])	also measured
O=C(NO)c1ccc(NC(=O)C2(c3csc(-c4cccc(Oc5ccccc5)c4)n3)CCCC2)cc1	> 10000 nM	–
O=C(NO)c1ccc(NC(=O)C2(c3ccc(-c4ccc5[nH]ccc5c4)cc3)CCCC2)cc1	8 nM	–
Nc1ccc(C2(C(=O)Nc3ccc(C(=O)NO)cc3)CCOCC2)cc1	22 nM	–
O=C(NO)c1ccc(NC(=O)C2(c3ccccc3)CCCCC2)cc1	15 nM	–
O=C(NO)c1ccc(NC(=O)C2(c3c[nH]c(-c4ccc([N+](=O)[O-])cc4)n3)CCCC2)cc1	6 nM	–
O=C(Cc1ccccc1)Nc1ccc(C(=O)NO)cc1	75 nM	–
CCCC(CCC)C(=O)Nc1ccc(C(=O)NO)cc1	738 nM	–
O=C(NO)c1ccc(NC(=O)C2(c3ccc(-c4ccccc4)cc3)CCCC2)cc1	16 nM	–
O=C(NO)c1ccc(NC(=O)C2(c3ccc(-c4cn[nH]c4)cc3)CCOCC2)cc1	2 nM	–
CC(C)C(C(=O)Nc1ccc(C(=O)NO)cn1)c1ccccc1 (stereo unspecified)	22 nM	–
C/C(=N\O)c1sccc1-c1ccc(C2(C(=O)Nc3ccc(C(=O)NO)cc3)CCCC2)cc1	43 nM	–
O=C(NO)c1ccc(NC(=O)C2(c3ccc([N+](=O)[O-])cc3)CCOCC2)cc1	9 nM	–
O=C(NO)c1ccc(NC(=O)C2(c3ccc4c(c3)OCO4)CCCCC2)cc1	42 nM	–
COc1ccc(C2(C(=O)Nc3ccc(C(=O)NO)cc3)CCCCC2)cc1-c1cn[nH]c1	3 nM	–
COc1cccc(-c2nc(C3(C(=O)Nc4ccc(C(=O)NO)cc4)CCCC3)cs2)c1	15 nM	–
CC(C)C(C(=O)Nc1ccc(C(=O)NO)c(Cl)c1)c1ccccc1 (racemic)	8680 nM	–
O=C(NO)c1ccc(NC(=O)C2(c3ccc(-c4cc[nH]n4)cc3)CCCC2)cc1	4 nM	–
COc1ccc(C2(C(=O)Nc3ccc(C(=O)NO)cc3)CCCCC2)cc1OC	29 nM	–
CC(C)C(C(=O)Nc1ccc(C(=O)Nc2ccccc2N)cc1)c1ccccc1 (racemic)	231 nM	–
O=C(NO)c1ccc(NC(=O)C2(c3ccc4ccccc4c3)CCCCC2)cc1	43 nM	–
O=C(NO)c1ccc(NC(=O)C2(c3ccc(Br)cc3)CCOCC2)cc1	2 nM	IC50 (Histone deacetylase 2): 17 nM; IC50 (Histone deacetylase 3): 4 nM; IC50 (Histone deacetylase 8): 59 nM; EC50 (Histone deacetylase 1 [2]): 600 nM; inhibition (Histone deacetylase 1 [2]): Dose-dependent effect

Structure (SMILES)	IC50 (Histone deacetylase 1 [1])	also measured
O=C(NO)c1ccc(NC(=O)C2(c3ccc(-c4cn[nH]c4)cc3)CCCC2)cc1	3 nM	–
CC(=O)Nc1cccc(-c2ccc(C3(C(=O)Nc4ccc(C(=O)NO)cc4)CCCC3)cc2)c1	5 nM	–
O=C(NO)c1ccc(NC(=O)C2(c3ccc(Cl)c(Cl)c3)CCOCC2)cc1	6 nM	–
O=C(NO)c1ccc(NC(=O)C2(c3ccc(-c4ccccc4)c(F)c3)CCCC2)cc1	42 nM	–
O=C(NO)c1ccc(NC(=O)C2(c3ccccc3)CC2)cc1	93 nM	–
O=C(NO)c1ccc(NC(=O)C2(c3c[nH]c(-c4ccc(Br)cc4)n3)CCCC2)cc1	10 nM	–
COc1ccc(C2(C(=O)Nc3ccc(C(=O)NO)cc3)CCCCC2)cc1-c1ccccc1NC(C)=O	9 nM	–
O=C(NO)c1ccc(NC(=O)C2(c3ccc4ccccc4c3)CCOCC2)cc1	–	IC50 (Histone deacetylase 2): 8 nM; IC50 (Histone deacetylase 3): 2 nM; IC50 (Histone deacetylase 8): 44 nM; IC50 (A549 [3]): 100 nM; IC50 (HT-29 [4]): 40 nM; IC50 (HeLa [5]): 30 nM; IC50 (MDA-MB-231 [6]): 100 nM; IC50 (MM96L [7]): 20 nM; IC50 (NFF [8]): 400 nM; EC50 (NFF [9]): 4300 nM; EC50 (A549 [10]): 2600 nM; EC50 (HT-29 [11]): 200 nM; EC50 (HeLa [12]): 700 nM; EC50 (MDA-MB-231 [13]): 300 nM; EC50 (MM96L [14]): 60 nM; inhibition (Histone deacetylase 1 [2]): Dose-dependent effect
O=C(NO)c1ccc(NC(=O)C2(c3ccc(-c4cccnc4)cc3)CCCC2)cc1	5 nM	–
Cc1n[nH]c(C)c1-c1ccc(C2(C(=O)Nc3ccc(C(=O)NO)cc3)CCCC2)cc1	8 nM	–
O=C(O)c1cccc(-c2ccc(C3(C(=O)Nc4ccc(C(=O)NO)cc4)CCCC3)cc2)c1	2 nM	IC50 (Histone deacetylase 2): 13 nM; IC50 (Histone deacetylase 3): 7 nM; IC50 (Histone deacetylase 8): 118 nM; IC50 (A549 [3]): > 100000 nM; IC50 (HT-29 [4]): > 100000 nM; IC50 (HeLa [5]): > 100000 nM; IC50 (MDA-MB-231 [6]): > 100000 nM; IC50 (MM96L [7]): > 100000 nM; EC50 (A549 [10]): > 100000 nM; EC50 (HT-29 [11]): > 100000 nM; EC50 (HeLa [12]): > 100000 nM; EC50 (MDA-MB-231 [13]): > 100000 nM; EC50 (MM96L [14]): > 100000 nM
O=C(NO)c1ccc(NC(=O)C2(c3ccccc3)CCCC2)cc1	28 nM	–
Nc1cccc(-c2ccc(C3(C(=O)Nc4ccc(C(=O)NO)cc4)CCCC3)cc2)c1	4 nM	–
COc1ccc(C2(C(=O)Nc3ccc(C(=O)NO)cc3)CCCCC2)cc1Br	31 nM	–
O=C(NO)c1ccc(NC(=O)C2(c3ccc(-c4cn[nH]c4)cc3)CCCCC2)cc1	2 nM	IC50 (Histone deacetylase 2): 10 nM; IC50 (Histone deacetylase 3): 2 nM; IC50 (Histone deacetylase 8): 69 nM
O=C(NO)c1ccc(NC(=O)C(c2ccccc2)c2ccccc2)cc1	250 nM	–
CC(C)C(C(=O)Nc1ccc(C(=O)NO)cc1Cl)c1ccccc1 (racemic)	1060 nM	–
O=C(NO)c1ccc(NC(=O)C2(c3c[nH]c(-c4ccccc4)n3)CCCC2)cc1	3 nM	IC50 (Histone deacetylase 2): 21 nM; IC50 (Histone deacetylase 3): 10 nM; IC50 (Histone deacetylase 8): 41 nM
O=C(NO)c1ccc(NC(=O)C2(c3csc(-c4ccccc4)n3)CCCC2)cc1	12 nM	–
CC(C)C(C(=O)Nc1ccc(C(=O)NO)cc1)c1ccccc1 (racemic)	–	IC50 (A549 [3]): 1500 nM; IC50 (HT-29 [4]): 600 nM; IC50 (HeLa [5]): 700 nM; IC50 (MDA-MB-231 [6]): 1500 nM; IC50 (MM96L [7]): 300 nM; IC50 (NFF [8]): 500 nM; EC50 (NFF [9]): 24300 nM; EC50 (A549 [10]): 15600 nM; EC50 (HT-29 [11]): 1700 nM; EC50 (HeLa [12]): 8100 nM; EC50 (MDA-MB-231 [13]): 2400 nM; EC50 (MM96L [14]): 900 nM
O=C(NO)c1ccc(NC(=O)C2(c3ccccc3)CCCC2)nc1	132 nM	–

Structure (SMILES)	IC50 (Histone deacetylase 1 [1])	also measured
O=C(NO)c1ccc(NC(=O)C2(c3ccc(F)cc3)CCCC2)cc1	41 nM	–
CC(=O)Nc1ccc(N)cc1-c1ccc(C2(C(=O)Nc3ccc(C(=O)NO)cc3)CCCCC2)cc1	10 nM	–
O=C(NO)c1ccc(NC(=O)C2(c3csc(-c4ccccc4Oc4ccccc4)n3)CCCC2)cc1	431 nM	–
CC(C)C(C(=O)N(C)c1ccc(C(=O)NO)cc1)c1ccccc1 (racemic)	439 nM	–
COc1ccc(C2(C(=O)Nc3ccc(C(=O)NO)cc3)CCCCC2)cc1-c1cccc(N)c1	10 nM	–
O=C(NO)c1ccc(NC(=O)C2(c3ccccc3)CCOCC2)cc1	28 nM	–
O=C(NO)c1ccc(NC(=O)C2(c3ccc(Br)cc3)CCCCC2)cc1	63 nM	–
O=C(NO)c1ccc(NC(=O)C2(c3ccc(-c4ccc(OCc5ccccc5)nc4)cc3)CCCC2)cc1	240 nM	–
Cc1[nH]ncc1-c1ccc(C2(C(=O)Nc3ccc(C(=O)NO)cc3)CCCC2)cc1	5 nM	–
CC(=O)Nc1ccccc1-c1ccc(C2(C(=O)Nc3ccc(C(=O)NO)cc3)CCCC2)cc1	0.94 nM	–
O=C(NO)c1ccc(NC(=O)C2(c3c[nH]c4ccccc34)CCCC2)cc1	23 nM	–
O=C(NO)c1ccc(NC(=O)C2(c3ccc(Cl)cc3)CCCC2)cc1	12 nM	–
CCC(CC)(C(=O)Nc1ccc(C(=O)NO)cc1)c1ccccc1	430 nM	–
O=C(NO)c1ccc(NC(=O)C2(c3ccc4ccccc4c3)CCCC2)cc1	11 nM	–
O=C(NO)c1ccc(NC(=O)C2(c3ccc(Br)cc3)CCCC2)cc1	7 nM	–
CC(C)C(NC(=O)c1ccc(C(=O)NO)cc1)c1ccccc1 (racemic)	2120 nM	–
O=C(NO)c1ccc(NC(=O)C2(c3ccc(C(F)(F)F)c(F)c3)CCCC2)cc1	227 nM	–
CC(C)(C(=O)Nc1ccc(C(=O)NO)cc1)c1ccccc1	218 nM	–
O=C(NO)c1ccc(NC(=O)C2(c3ccccc3)CCNCC2)cc1	12 nM	–

Reference: ChEMBL document CHEMBL4602725 (J Med Chem, 2020)
